Read-outs that look alike come from different tables or passages of the source.
Experiments:
[1] = test system: Eschericia coli (E. coli) strain ATCC25922; assay: Standard microdilution assay, MIC against E. coli ATCC25922; assay type: cell-based; settings: Escherichia coli
Summary of the method: (§1)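 Scoring as + or − used a 16 micrograms/mL cutoff on minimum inhibitory concentrations. These came from CLSI-standard microdilution, quality-controlled with reference strains tested in the same run.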

[2] = test system: Staphylococcus aureus (S. aureus) 11540 strain; assay: Standard microdilution assay, MIC against S. aureus 11540; assay type: cell-based; settings: read-out: MIC S. aureus
Summary of the method: as §1

[3] = E. coli strain ATCC25922, standard microdilution assay, cutoff 16 micrograms/mL, read-out: MIC E. Coli
[4] = S. aureus 11540 strain, standard microdilution assay, cutoff 16 micrograms/mL

Compound	MIC [1, 3]	MIC [2, 4]	MIC ([1]; ATCC25922, read-out: MIC E. Coli)	MIC [2]
C[C@H](N)CCCc1cc(OC(F)(F)F)c(F)c(-c2cc3cn(-c4ccc([C@H](N)CCN)cc4)c(=O)nc3[nH]2)c1 [Compound 441]	< 16 µg/mL	< 16 µg/mL	–	–
C[C@H](N)CCCc1cc(Cl)c(F)c(-c2cc3cn(-c4ccc([C@H](N)CCNC(=N)N)cc4)c(=O)nc3[nH]2)c1 [Compound 442]	< 16 µg/mL	< 16 µg/mL	–	–
C[C@H](N)CCCc1cc(OC(F)(F)F)c(F)c(-c2cc3cn(-c4ccc([C@H](N)CCNC(=N)N)cc4)c(=O)nc3[nH]2)c1 [Compound 443]	< 16 µg/mL	< 16 µg/mL	–	–
C[C@H](N)CCCc1cc(Cl)c(F)c(-c2cc3cn(-c4ccc([C@H]5CCC[C@@H](CCNC(=N)N)N5)cc4)c(=O)nc3[nH]2)c1 [Compound 444]	< 16 µg/mL	< 16 µg/mL	–	–
C[C@H](NCCCNC(=N)N)c1ccc(-n2cc3cc(-c4cc([C@H]5CC[C@@H](CN)O5)cc(Cl)c4F)[nH]c3nc2=O)cc1 [Compound 445]	< 16 µg/mL	< 16 µg/mL	–	–
C[C@H](NCCCNC(=N)N)c1ccc(-n2cc3cc(-c4cc([C@@H]5CC[C@H](CN)O5)cc(Cl)c4F)[nH]c3nc2=O)cc1 [Compound 446]	< 16 µg/mL	< 16 µg/mL	–	–
C[C@H](N)CCCc1cc(Cl)c(F)c(-c2cc3cn(-c4ccc(C(O)[C@@H]5C[C@@H](NC(=N)N)CN5)cc4)c(=O)nc3[nH]2)c1 (some centres unmarked) [Compound 447]	< 16 µg/mL	< 16 µg/mL	–	–
C[C@H](N)CCCc1cc(OC(F)(F)F)c(F)c(-c2cc3cn(-c4ccc(C(O)[C@@H]5C[C@@H](NC(=N)N)CN5)cc4)c(=O)nc3[nH]2)c1 (some centres unmarked) [Compound 448]	< 16 µg/mL	< 16 µg/mL	–	–
C[C@H](N)CCCc1cc(OC(F)(F)F)c(F)c(-c2cc3cn(-c4ccc(C(O)[C@@H]5C[C@@H](N)CN5)cc4)c(=O)nc3[nH]2)c1 (some centres unmarked) [Compound 449]	> 16 µg/mL	< 16 µg/mL	–	–
C[C@H](CCNC(=N)N)NCc1ccc(-n2cc3cc(-c4cc(CCC[C@@H](N)CO)cc(Cl)c4F)[nH]c3nc2=O)cc1 [Compound 450]	< 16 µg/mL	< 16 µg/mL	–	–
C[C@H](N)CCCc1cc(Cl)c(F)c(-c2cc3cn(-c4ccc([C@H]5COC[C@@H](CNC(=N)N)N5)cc4)c(=O)nc3[nH]2)c1 [Compound 451]	< 16 µg/mL	< 16 µg/mL	–	–
C[C@H](N)CCCc1cc(Cl)c(F)c(-c2cc3cn(-c4ccc([C@@H]5COC[C@@H](CO)N5)cc4)c(=O)nc3[nH]2)c1 [Compound 452]	> 16 µg/mL	> 16 µg/mL	–	–
C[C@H](N)CCCc1cc(OC(F)(F)F)c(F)c(-c2cc3cn(-c4ccc([C@@H]5COC[C@@H](CO)N5)cc4)c(=O)nc3[nH]2)c1 [Compound 453]	> 16 µg/mL	> 16 µg/mL	–	–
C[C@H](N)CCCc1cc(Cl)c(F)c(-c2cc3cn(-c4ccc([C@H](N)CCCN)cc4)c(=O)nc3[nH]2)c1 [Compound 454]	< 16 µg/mL	< 16 µg/mL	–	–
C[C@H](N)CCCc1cc(OC(F)(F)F)c(F)c(-c2cc3cn(-c4ccc([C@H](N)CCCN)cc4)c(=O)nc3[nH]2)c1 [Compound 455]	< 16 µg/mL	< 16 µg/mL	–	–
C[C@H](N)CCCc1cc(Cl)c(F)c(-c2cc3cn(-c4ccc([C@H](N)CCCNC(=N)N)cc4)c(=O)nc3[nH]2)c1 [Compound 456]	< 16 µg/mL	< 16 µg/mL	–	–
C[C@H](N)CCCc1cc(OC(F)(F)F)c(F)c(-c2cc3cn(-c4ccc([C@H](N)CCCNC(=N)N)cc4)c(=O)nc3[nH]2)c1 [Compound 457]	< 16 µg/mL	< 16 µg/mL	–	–
C[C@H](N)CCCc1cc(Cl)c(F)c(-c2cc3cn(-c4ccc(C5(N)CNC5)cc4)c(=O)nc3[nH]2)c1 [Compound 458]	> 16 µg/mL	< 16 µg/mL	–	–
C[C@H](N)CCCc1cc(Cl)c(F)c(-c2cc3cn(-c4ccc(C(=O)NCCCNC(=N)N)cc4)c(=O)nc3[nH]2)c1 [Compound 459]	< 16 µg/mL	< 16 µg/mL	–	–
C[C@H](N)CCCc1cc(Cl)c(F)c(-c2cc3cn(-c4ccc(C(=N)NCCCN)cc4)c(=O)nc3[nH]2)c1 [Compound 460]	< 16 µg/mL	< 16 µg/mL	–	–
C[C@H](N)CCCc1cc(OC(F)(F)F)c(F)c(-c2cc3cn(-c4ccc(C(=O)NCCCNC(=N)N)cc4)c(=O)nc3[nH]2)c1 [Compound 461]	< 16 µg/mL	< 16 µg/mL	–	–
C[C@H](N)CCCc1cc(OC(F)(F)F)c(F)c(-c2cc3cn(-c4ccc(C(=N)NCCCN)cc4)c(=O)nc3[nH]2)c1 [Compound 462]	< 16 µg/mL	< 16 µg/mL	–	–
C[C@H](N)CCCc1cc(Cl)c(F)c(-c2cc3cn(-c4ccc([C@@H]5COC[C@@H](CN)N5)cc4)c(=O)nc3[nH]2)c1 [Compound 464]	< 16 µg/mL	< 16 µg/mL	–	–
C[C@H](N)CCCc1cc(Cl)c(F)c(-c2cc3cn(-c4ccc([C@@H]5COC[C@@H](CNC(=N)N)N5)cc4)c(=O)nc3[nH]2)c1 [Compound 465]	< 16 µg/mL	< 16 µg/mL	–	–
C[C@H](N)CCCc1cc(OC(F)(F)F)c(F)c(-c2cc3cn(-c4ccc([C@@H]5COC[C@@H](CNC(=N)N)N5)cc4)c(=O)nc3[nH]2)c1 [Compound 466]	< 16 µg/mL	< 16 µg/mL	–	–

Compound	MIC [1, 3]	MIC [2, 4]	MIC ([1]; ATCC25922, read-out: MIC E. Coli)	MIC [2]
CCOP(=O)(OCC)OC[C@H](N)CCCc1cc(Cl)c(F)c(-c2cc3cn(-c4ccc([C@H](C)NCCCNC(=N)N)cc4)c(=O)nc3[nH]2)c1 [Compound 467]	< 16 µg/mL	< 16 µg/mL	–	–
CCOP(=O)(OCC)OC[C@@H]1COC[C@H](c2ccc(-n3cc4cc(-c5cc(CCC[C@H](C)N)cc(Cl)c5F)[nH]c4nc3=O)cc2)N1 [Compound 468]	> 16 µg/mL	< 16 µg/mL	–	–
C[C@H](N)CCCc1cc(Cl)c(F)c(-c2cc3cn(-c4ccc([C@H]5CC(CCNC(=N)N)CN5)cc4)c(=O)nc3[nH]2)c1 (some centres unmarked) [Compound 469]	< 16 µg/mL	< 16 µg/mL	–	–
C[C@H](N)CCCc1cc(OC(F)(F)F)c(F)c(-c2cc3cn(-c4ccc([C@H]5CC(CCNC(=N)N)CN5)cc4)c(=O)nc3[nH]2)c1 (some centres unmarked) [Compound 470]	< 16 µg/mL	< 16 µg/mL	–	–
C[C@H](N)CCCc1cc(Cl)c(F)c(-c2cc3cn(-c4ccc(C(O)CNC(=N)N)cc4)c(=O)nc3[nH]2)c1 (some centres unmarked) [Compound 471]	< 16 µg/mL	< 16 µg/mL	–	–
C[C@H](N)CCCc1cc(OC(F)(F)F)c(F)c(-c2cc3cn(-c4ccc(C(O)CNC(=N)N)cc4)c(=O)nc3[nH]2)c1 (some centres unmarked) [Compound 472]	< 16 µg/mL	< 16 µg/mL	–	–
C[C@H](N)CCCc1cc(Cl)c(F)c(-c2cc3cn(-c4ccc(C(N)CNC(=N)N)cc4)c(=O)nc3[nH]2)c1 (some centres unmarked) [Compound 473]	< 16 µg/mL	< 16 µg/mL	–	–
C[C@H](N)CCCc1cc(OC(F)(F)F)c(F)c(-c2cc3cn(-c4ccc(C(N)CNC(=N)N)cc4)c(=O)nc3[nH]2)c1 (some centres unmarked) [Compound 474]	< 16 µg/mL	< 16 µg/mL	–	–
C[C@H](N)CCCc1cc(Cl)c(F)c(-c2cc3cn(-c4ccc(C(=O)NCCCN)cc4)c(=O)nc3[nH]2)c1 [Compound 475]	< 16 µg/mL	< 16 µg/mL	–	–
C[C@H](NCCCNC(=N)N)c1ccc(-n2cc3cc(-c4cc(CCC[C@H](N)CO)cc(Cl)c4F)[nH]c3nc2=O)cc1 [Compound 476]	< 16 µg/mL	< 16 µg/mL	–	–
C[C@H](N)CCCc1cc(Cl)c(F)c(-c2cc3cn(-c4ccc(C(=N)NCCCNC(=N)N)cc4)c(=O)nc3[nH]2)c1 [Compound 477]	< 16 µg/mL	< 16 µg/mL	–	–
C[C@H](N)CCCc1cc(Cl)c(F)c(-c2cc3cn(-c4ccc([C@@H]5CCC[C@@H](CCn6ccnn6)N5)cc4)c(=O)nc3[nH]2)c1 [Compound 478]	> 16 µg/mL	> 16 µg/mL	–	–
C[C@H](N)CCCc1cc(OC(F)(F)F)c(F)c(-c2cc3cn(-c4ccc([C@@H]5CCC[C@@H](CCn6ccnn6)N5)cc4)c(=O)nc3[nH]2)c1 [Compound 479]	> 16 µg/mL	> 16 µg/mL	–	–
C[C@H](N)CCCc1cc(OC(F)(F)F)c(F)c(-c2cc3cn(-c4ccc(C(CO)CNC(=N)N)cc4)c(=O)nc3[nH]2)c1 (some centres unmarked) [Compound 480]	< 16 µg/mL	< 16 µg/mL	–	–
C[C@H](N)CCCc1cc(OC(F)(F)F)c(F)c(-c2cc3cn(-c4ccc([C@H](C)NCCC(CC5CNC5)NC(=N)N)cc4)c(=O)nc3[nH]2)c1 (some centres unmarked) [Compound 481]	< 16 µg/mL	< 16 µg/mL	–	–
N=C(N)NCC[C@H]1CC[C@H](c2ccc(-n3cc4cc(-c5cc(CCC[C@@H](N)CO)cc(Cl)c5F)[nH]c4nc3=O)cc2)N1 [Compound 482]	< 16 µg/mL	< 16 µg/mL	–	–
NCC[C@@H]1CCC[C@@H](c2ccc(-n3cc4cc(-c5cc(CCC[C@@H](N)CO)cc(Cl)c5F)[nH]c4nc3=O)cc2)N1 [Compound 483]	< 16 µg/mL	< 16 µg/mL	–	–
N=C(N)NCC[C@@H]1CCC[C@@H](c2ccc(-n3cc4cc(-c5cc(CCC[C@@H](N)CO)cc(Cl)c5F)[nH]c4nc3=O)cc2)N1 [Compound 484]	< 16 µg/mL	< 16 µg/mL	–	–
C[C@H](N)CCCc1cc(-c2cc3cn(-c4ccc([C@@H]5CCC[C@@H](CCN)N5)cc4)c(=O)nc3[nH]2)cc(C(F)(F)F)c1 [Compound 485]	< 16 µg/mL	< 16 µg/mL	–	–
C[C@H](N)CCCc1cc(-c2cc3cn(-c4ccc([C@@H]5CCC[C@@H](CCNC(=N)N)N5)cc4)c(=O)nc3[nH]2)cc(C(F)(F)F)c1 [Compound 486]	< 16 µg/mL	< 16 µg/mL	–	–
C[C@H](NCCCNC(=N)N)c1ccc(-n2cc3cc(-c4cc(CCC[C@@H](N)COP(=O)(O)O)cc(Cl)c4F)[nH]c3nc2=O)cc1 [Compound 487]	< 16 µg/mL	< 16 µg/mL	–	–
C[C@H](NCCCNC(=N)N)c1ccc(-n2cc3cc(-c4cc(CCC[C@@H](N)COP(=O)(Oc5ccccc5)Oc5ccccc5)cc(Cl)c4F)[nH]c3nc2=O)cc1 [Compound 488]	–	–	< 16 µg/mL	< 16 µg/mL
C[C@H](N)CCCc1cc(Cl)c(F)c(-c2cc3cn(-c4ccc([C@@H]5CCC[C@@H](Cc6cnn[nH]6)N5)cc4)c(=O)nc3[nH]2)c1 [Compound 489]	> 16 µg/mL	> 16 µg/mL	–	–
C[C@H](N)CCCc1cc(Cl)c(F)c(-c2cc3cn(-c4ccc(CN[C@H](CCN)CNc5nccs5)cc4)c(=O)nc3[nH]2)c1 [Compound 490]	< 16 µg/mL	< 16 µg/mL	–	–

— US10815238B2, “Antimicrobial compounds and methods of making and using the same” (BIOVERSYS AG, priority 2013, dated 2020)
